Test results reported in ChEMBL document CHEMBL1134312, “Design, synthesis, and biological activity of a novel non-cisplatin-type platinum-acridine pharmacophore” (J Med Chem, 2001).

How the values were obtained:
HL-60 = test: Cytotoxicity against HL-60 leukemia cells; assay type: functional, cell-based, Homo sapiens
C13 = test: Cytotoxicity against cisplatin-resistant cell lines (C13*); assay type: functional, cell-based, Homo sapiens
[1] = Cytotoxicity against human ovarian 2008 (wild type) cell lines; assay type: functional, cell-based

Compound | IC50 (HL-60; hl-60) [µM] | IC50 (C13; c13) [µM] | IC50 [1] [µM] | IC50 (HL-60; Homo sapiens, HL-60) [µM] | IC50 (C13; Homo sapiens, C13) [µM] | IC50 ([1]; Homo sapiens) [µM]
2-(9-acridiniumylamino)ethyl(methyl)amino(imino)methyl(methyl)amine1-PtCl(en) | 0.13 | 9.6 | 3.8 |  |  | 
9-acridinylmethylamino-methylaminomethanethione1-PtCl(en) | 75 | > 100 | > 100 |  |  | 
CNC(=S)N(C)CCNc1c2ccccc2nc2ccccc12 |  |  |  | 11 | 3.7 | 2.2
